In patent US20260125400A1, “TYK2 DEGRADERS AND USES THEREOF” (Kymera Therapeutics, Inc., priority 2023, published 2026):
Like-named read-outs stand apart in the source and are kept apart here.

Molecular target: T1, TYK2 (Homo sapiens, UniProt P29597)
T1 construct: Degradation of TYK2 in cells was quantitatively measured using Meso Scale Discovery (MSD) technology; endogenous in cells; host or cells: OCI-LY10
Assay: TYK2 MSD degradation in OCI-LY10 cells
Type: cell-based
Settings: 4 to 24 hours incubation; for DC50: read-out: TYK2 MSD OCI-LY10 Rel-DC50
Description: Example 7. TYK2 MSD Degradation
Degradation of TYK2 in cells was quantitatively measured using Meso Scale Discovery (MSD) technology. OCI-LY10 cells were seeded in 96-well plates with a density of 0.4 million cells per well in 100 μl fresh media. Compounds were then added to the assay plates with a final top concentration of 1 to 10 μM in a 1:3 dilution series with total of 9 doses. The assay plates were then incubated for 4 to 24 hours at 37° C. under […]. The assay plates were then centrifuged for 5 minutes, and the cell pellets were treated with 100 μl/well RIPA lysis buffer (Boston Bioproducts, BP-115D) with protease and phosphatase inhibitors (Roche, 05892791001 and 04906837001). To prepare MSD assay plates (MSD, L15XA), the plates were coated with the capture antibody (Santa Cruz Biotechnology, SC-5271) in PBS, at 40 μl/well. The plates were then incubated overnight at 4° C., washed 3 times with 150 μl/well TBST buffer (Cell Signaling Technology, 9997S) and blocked with 150 μl/well blocking buffer (MSD, R93BA-4). Cell lysates were then added to MSD assay plates and the plates were incubated at room temperature for 1 hour. The plates were then washed 3 times with 150 μl/well TBST buffer and 25 μl/well primary detection antibody (Cell Signaling Technology, #9312). The assay plates were then incubated at room temperature for 1 hour, washed 3 times with 150 μl/well TBST buffer, and 25 μl/well secondary detection antibody, SULFO-TAG anti-rabbit antibody (MSD, R32AB-1) were added. The assay plates were then incubated at room temperature for 1 hour, washed 3 times with 150 μl/well TB ST buffer, and 150 μl/well MSD reading buffer (MSD, R92TC-2) were added. The plates were then analyzed by an MSD reader. The data was analyzed by GraphPad Prism and the dose dependent TYK2 degradation was fit using the four-parameter inhibitor vs. response nonlinear regression.
The letter codes for TYK2 DC50 include: A (<1 nM); B (i to <10 nM); C (10 to 100 nM); D (>100 nM); and E (not tested). The letter codes for TYK2 Dmax % include: A (>90%); B (90 to >75%); C (75 to 50%); D (<50%); and E (not tested).

[1] = TYK2 degradation in OCI-LY10 cells

T1 sequence (P29597 whole entry): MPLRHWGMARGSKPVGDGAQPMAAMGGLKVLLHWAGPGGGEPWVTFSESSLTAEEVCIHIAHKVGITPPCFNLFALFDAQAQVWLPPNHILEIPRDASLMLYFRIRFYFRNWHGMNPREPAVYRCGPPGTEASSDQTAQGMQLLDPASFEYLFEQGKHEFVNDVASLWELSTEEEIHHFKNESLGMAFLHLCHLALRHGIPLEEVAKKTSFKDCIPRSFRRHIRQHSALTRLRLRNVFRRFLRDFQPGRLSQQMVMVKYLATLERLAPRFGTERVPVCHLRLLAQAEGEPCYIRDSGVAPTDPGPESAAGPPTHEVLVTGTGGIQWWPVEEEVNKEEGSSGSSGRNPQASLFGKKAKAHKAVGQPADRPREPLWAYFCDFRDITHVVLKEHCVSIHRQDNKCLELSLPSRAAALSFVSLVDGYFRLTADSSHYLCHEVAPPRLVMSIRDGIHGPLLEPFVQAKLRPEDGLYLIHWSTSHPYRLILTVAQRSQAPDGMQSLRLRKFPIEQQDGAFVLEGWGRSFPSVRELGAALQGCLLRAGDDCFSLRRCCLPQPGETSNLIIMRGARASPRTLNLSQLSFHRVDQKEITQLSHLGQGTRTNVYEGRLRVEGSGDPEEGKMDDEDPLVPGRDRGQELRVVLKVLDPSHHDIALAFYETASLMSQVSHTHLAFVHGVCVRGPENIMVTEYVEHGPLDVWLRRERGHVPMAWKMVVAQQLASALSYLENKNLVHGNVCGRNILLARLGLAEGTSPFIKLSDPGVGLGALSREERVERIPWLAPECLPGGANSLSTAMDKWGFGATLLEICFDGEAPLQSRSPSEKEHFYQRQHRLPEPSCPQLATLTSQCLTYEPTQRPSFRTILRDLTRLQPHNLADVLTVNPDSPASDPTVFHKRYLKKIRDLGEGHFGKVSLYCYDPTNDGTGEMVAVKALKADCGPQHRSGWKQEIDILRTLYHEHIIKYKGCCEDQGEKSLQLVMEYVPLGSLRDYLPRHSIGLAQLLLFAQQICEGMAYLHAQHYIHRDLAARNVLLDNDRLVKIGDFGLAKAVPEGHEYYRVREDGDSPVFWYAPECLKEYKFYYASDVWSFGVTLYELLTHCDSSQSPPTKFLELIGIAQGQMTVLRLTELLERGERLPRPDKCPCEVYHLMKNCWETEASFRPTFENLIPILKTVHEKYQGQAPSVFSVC

CNc1cc(N2CCc3c(-c4ccc(CN5CCN(CCC6CCN(c7ccc(Cl)c(C8CCC(=O)NC8=O)c7)CC6)CC5)cn4)cccc32)nn2c(C(=O)NC3CC3F)cnc12 (mixture of isomers) [I-438]
TYK2 MSD OCI-LY10 Dmax % (OCI-LY10 cells): C (C (75 to 50%)) | DC50 (OCI-LY10 cells): < 0.01 µM

CNc1cc(N2CCc3c(-c4ccc(N5CCN(CC6CCN(c7ccc(Cl)c(C8CCC(=O)NC8=O)c7)CC6)CC5)cn4)cccc32)nn2c(C(=O)NC3CC3F)cnc12 (mixture of isomers) [I-442]
TYK2 MSD OCI-LY10 Dmax % (OCI-LY10 cells): C (C (75 to 50%)) | DC50 (OCI-LY10 cells): < 0.01 µM

CNc1cc(N2CCc3c(-c4ccc(N5CC6(CCN(Cc7ccc(C8CCC(=O)NC8=O)c(Cl)c7)CC6)C5)cn4)cccc32)nn2c(C(=O)NC3CC3F)cnc12 (mixture of isomers) [I-445]
TYK2 MSD OCI-LY10 Dmax % (OCI-LY10 cells): B (B (90 to >75%)) | DC50 (OCI-LY10 cells): < 0.01 µM

CNc1cc(N2CCc3c(-c4ccc(N5CCC6(CC5)CN(C(=O)c5ccc(C7CCC(=O)NC7=O)c(Cl)c5)C6)cn4)cccc32)nn2c(C(=O)NC3CC3F)cnc12 (mixture of isomers) [I-447]
TYK2 MSD OCI-LY10 Dmax % (OCI-LY10 cells): C (C (75 to 50%)) | DC50 (OCI-LY10 cells): < 0.01 µM

CNc1cc(N2CCc3c(-c4ccc(CN5CCC(N6CCN(c7ccc8c(c7)n(C)c(=O)n8C7CCC(=O)NC7=O)CC6)CC5)cn4)cccc32)nn2c(C(=O)N[C@@H]3C[C@@H]3F)cnc12 (stereo partly shown) [I-1]
TYK2 MSD OCI-LY10 Dmax % [1]: B (B (90 to >75%)) | DC50 [1]: < 0.001 µM

CNc1cc(N2CCc3c(-c4cc(CN5CCC(c6ccc7c(c6)n(C)c(=O)n7C6CCC(=O)NC6=O)C(F)(F)C5)ccn4)cccc32)nn2c(C(=O)NC3CC3)cnc12 (stereo not shown) [I-4]
TYK2 MSD OCI-LY10 Dmax % [1]: D (D (<50%)) | DC50 [1]: > 0.1 µM

CNc1cc(N2CCc3c(N4CCC(CN5CCC(N6CCN(c7ccc8c(c7)n(C)c(=O)n8C7CCC(=O)NC7=O)CC6)C(F)(F)C5)CC4)cccc32)nn2c(C(=O)NC3CC3)cnc12 (stereo not shown) [I-5]
TYK2 MSD OCI-LY10 Dmax % [1]: C (C (75 to 50%)) | DC50 [1]: < 0.01 µM

CNc1cc(N2CCc3c(N4CC(CN5CCC(N6CCN(c7ccc8c(c7)n(C)c(=O)n8C7CCC(=O)NC7=O)CC6)C(F)(F)C5)C4)cccc32)nn2c(C(=O)NC3CC3)cnc12 (stereo not shown) [I-12]
TYK2 MSD OCI-LY10 Dmax % [1]: C (C (75 to 50%)) | DC50 [1]: < 0.001 µM

CNc1cc(N2CCc3c(CN4CCC(N5CCN(c6ccc7c(c6)n(C)c(=O)n7C6CCC(=O)NC6=O)CC5)C(F)(F)C4)cccc32)nn2c(C(=O)NC3CC3)cnc12 (stereo not shown) [I-15]
TYK2 MSD OCI-LY10 Dmax % [1]: C (C (75 to 50%)) | DC50 [1]: < 0.001 µM

CNc1cc(N2CCc3c(CN4CCC(N5CCC6(CCN(c7ccc8c(c7)n(C)c(=O)n8C7CCC(=O)NC7=O)CC6)CC5)C(F)(F)C4)cccc32)nn2c(C(=O)NC3CC3)cnc12 (stereo not shown) [I-19]
TYK2 MSD OCI-LY10 Dmax % [1]: B (B (90 to >75%)) | DC50 [1]: < 0.01 µM

CNc1cc(N2CCc3c(-c4cc(CN5CCC6(CC5)CN(c5ccc7c(c5)n(C)c(=O)n7C5CCC(=O)NC5=O)C6)ccn4)cccc32)nn2c(C(=O)NC3CC3)cnc12 (stereo not shown) [I-21]
TYK2 MSD OCI-LY10 Dmax % [1]: D (D (<50%)) | DC50 [1]: < 0.01 µM

CNc1cc(N2CC3(CCN(C4CCN(c5cccc6c5n(C)c(=O)n6C5CCC(=O)NC5=O)CC4)CC3)c3ccccc32)nn2c(C(=O)NC3CC3)cnc12 (stereo not shown) [I-23]
TYK2 MSD OCI-LY10 Dmax % [1]: D (D (<50%)) | DC50 [1]: > 0.1 µM

CNc1cc(N2CC3(CCN(CC4CCN(c5ccc6c(c5)n(C)c(=O)n6C5CCC(=O)NC5=O)CC4)CC3)c3ccccc32)nn2c(C(=O)NC3CC3)cnc12 (stereo not shown) [I-24]
TYK2 MSD OCI-LY10 Dmax % [1]: D (D (<50%)) | DC50 [1]: > 0.1 µM

CNc1cc(N2CC3(CCN(CC4CCN(c5cccc6c5n(C)c(=O)n6C5CCC(=O)NC5=O)CC4)CC3)c3ccccc32)nn2c(C(=O)NC3CC3)cnc12 (stereo not shown) [I-25]
TYK2 MSD OCI-LY10 Dmax % [1]: D (D (<50%)) | DC50 [1]: > 0.1 µM

CNc1cc(N2CCc3c(-c4ccc(CN5CC6(CCN(C(=O)c7ccc(Cl)c(N8CCC(=O)NC8=O)c7)CC6(F)F)C5)cn4)cccc32)nn2c(C(=O)NC3CC3)cnc12 [I-29]
TYK2 MSD OCI-LY10 Dmax % [1]: B (B (90 to >75%)) | DC50 [1]: < 0.01 µM

CNc1cc(N2CCc3c(N4CCN(C5CCC6(CC5)CCN(c5ccc7c(c5)n(C)c(=O)n7C5CCC(=O)NC5=O)CC6)CC4)cccc32)nn2c(C(=O)NC3CC3)cnc12 (stereo not shown) [I-31]
TYK2 MSD OCI-LY10 Dmax % [1]: D (D (<50%)) | DC50 [1]: < 0.01 µM

CNc1cc(N2CCc3c(N4CCN(CC5CC6(CCN(C(=O)c7ccc(Cl)c(N8CCC(=O)NC8=O)c7)CC6)C5)CC4)cccc32)nn2c(C(=O)NC3CC3)cnc12 [I-32]
TYK2 MSD OCI-LY10 Dmax % [1]: C (C (75 to 50%)) | DC50 [1]: < 0.01 µM
